Measured values reported in PMC8388125, “Kinetic and Structural Characterization of the Self-Labeling Protein Tags HaloTag7, SNAP-tag, and CLIP-tag” (Biochemistry, 2021).

biological target: T1, HaloTag7 (HT7) (Rhodococcus sp., UniProt P59336, A155T/A167V/A224E/C128F/C176G/D78G/E160K/E257K/G292T/H272N/K175M/K195N/L47V/L88M/N227D/P291S/S2A/S58T/T264A/V172T/Y273L/Y87F); test: HT7 competitive labeling kinetics against CA-Alexa488; assay type: biochemical; settings: HT7, nonfluorescent substrates, competition with CA-Alexa488, 37 °C
T1 construct: made in house; host or cells: E. coli BL21(DE3)-pLysS
T1 sequence (P59336 other isoform, or with tags, fused parts or gaps with the stated changes): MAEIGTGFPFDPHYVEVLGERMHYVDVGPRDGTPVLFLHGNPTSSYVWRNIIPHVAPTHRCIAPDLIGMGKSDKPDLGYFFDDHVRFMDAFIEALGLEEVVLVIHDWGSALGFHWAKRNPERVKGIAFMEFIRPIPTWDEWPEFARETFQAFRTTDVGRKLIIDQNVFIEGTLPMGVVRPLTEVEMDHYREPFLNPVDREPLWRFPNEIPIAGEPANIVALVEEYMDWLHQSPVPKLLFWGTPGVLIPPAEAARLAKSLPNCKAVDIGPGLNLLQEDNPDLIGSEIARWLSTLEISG
Description: Competitive kinetics were measured by recording FP over time using a microplate reader (Spark20M, Tecan). The final concentrations of CA-Alexa488 (50 nM) and HT7 protein (200 nM) remained constant with varying concentrations of nonfluorescent substrates (0–1 μM) in activity buffer supplemented with 0.5 g/L BSA. Assays were performed in black nonbinding flat bottom 96-well plates with a final reaction volume of 200 μL. Labeling reactions were started by adding the HT7 protein to wells containing CA-Alexa488 and nonfluorescent substrates using an electronic 96-channel pipettor (Integra Bioscience Corp., Hudson, NH). The FP of free CA-Alexa488 was measured to obtain a baseline.
(§1) Data were fitted to a simplified kinetic competition model (eqs 19 and 20) described by differential eqs 21–25 using DynaFit. The dead time of the measurements and baseline FP value were put in as fixed parameters. Standard deviations (normal distribution verified) and confidence intervals of fitted parameters were estimated with the Monte Carlo method with standard settings (N = 1000, 5% worst fits discarded). [drawing 19] 19 [drawing 20] 20 where P is the SLP protein, S is the fluorescent SLP substrate, I is the nonfluorescent SLP substrate (inhibitor), PS is the protein–fluorescent substrate conjugate, and PI is the protein–nonfluorescent substrate conjugate. [drawing 21] 21 [drawing 22] 22 [drawing 23] 23 [drawing 24] 24 [drawing 25] 25

Compound | kapp (value ± standard deviation)
O=C(NCCOCCOCCCCCCCl)OC1C#CCCCCC1 (centres unmarked) [CA-SCO] | (2.52 ± 0.05) × 10^5 M^–1 s^–1
O=C(CC1CC2C=CC1C2)NCCOCCOCCCCCCCl (centres unmarked) [CA-Nor2] | (6.15 ± 0.07) × 10^3 M^–1 s^–1
O=C(NCCOCCOCCCCCCCl)C1CC2C=CC1C2 (centres unmarked) [CA-Nor1] | (6.68 ± 0.06) × 10^3 M^–1 s^–1
[N-]=[N+]=Nc1ccc(C(=O)NCCOCCOCCCCCCCl)cc1 [CA-PhN3] | (2.14 ± 0.02) × 10^4 M^–1 s^–1
[N-]=[N+]=NCC(=O)NCCOCCOCCCCCCCl [CA-N3] | (6.00 ± 0.06) × 10^3 M^–1 s^–1
Cc1nnc(-c2ccc(CC(=O)NCCOCCOCCCCCCCl)cc2)nn1 [CA-Tz] | (3.13 ± 0.03) × 10^4 M^–1 s^–1
O=C(NCCOCCOCCCCCCCl)OC[C@@H]1[C@@H]2CCC#CCC[C@@H]21 [CA-BCN] | (2.04 ± 0.03) × 10^5 M^–1 s^–1
C=Cc1ccc(C(=O)NCCOCCOCCCCCCCl)cc1 [CA-Vbn] | (8.68 ± 0.07) × 10^3 M^–1 s^–1

biological target: T2, SNAP-tag (SNAP) (Homo sapiens, UniProt P16455, A127T/A154D/C150Q/C62A/G131K/G132T/G153L/K125A/K32I/L33F/M134L/N157G/Q115S/Q116H/R128A/R135S/S151G/S152D/S159E); test: SNAP competitive labeling kinetics against BG-Alexa488; assay type: biochemical; settings: nonfluorescent substrates, competition with BG-Alexa488
T2 construct: made in house; host or cells: E. coli BL21(DE3)-pLysS
T2 sequence (P16455 1-182 K32I/L33F/C62A/Q115S/Q116H/K125A/A127T/R128A/G131K/G132T/M134L/R135S/C150Q/S151G/S152D/G153L/A154D/N157G/S159E limits assumed): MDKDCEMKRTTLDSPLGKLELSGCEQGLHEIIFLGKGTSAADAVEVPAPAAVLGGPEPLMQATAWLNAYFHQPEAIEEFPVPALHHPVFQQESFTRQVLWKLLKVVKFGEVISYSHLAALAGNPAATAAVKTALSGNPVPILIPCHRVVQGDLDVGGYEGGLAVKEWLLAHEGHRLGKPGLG
Description: Competitive kinetics were measured by recording FP over time using a microplate reader in a manner analogous to that for HT7 competition kinetics described above using 100 nM BG-Alexa488 as the fluorescent substrate in SNAP-FP buffer.
as §1

Compound | kapp (value ± standard deviation)
Nc1nc(Cl)cc(OCc2ccc(CNC(=O)OC3C#CCCCCC3)cc2)n1 (centres unmarked) [CP-SCO] | (4.22 ± 0.61) × 10^3 M^–1 s^–1
Nc1nc(Cl)cc(OCc2ccc(CNC(=O)OC[C@@H]3[C@@H]4CCC#CCC[C@@H]43)cc2)n1 [CP-BCN] | (3.34 ± 0.31) × 10^3 M^–1 s^–1
CC(=O)NCc1ccc(COc2nc(N)nc3[nH]cnc23)cc1 [BG-Ac] | (1.48 ± 0.05) × 10^4 M^–1 s^–1
[N-]=[N+]=Nc1ccc(C(=O)NCc2ccc(COc3nc(N)nc4[nH]cnc34)cc2)cc1 [BG-PhN3] | (4.78 ± 0.09) × 10^4 M^–1 s^–1
Nc1nc(OCc2ccccc2)c2nc[nH]c2n1 [BG, benzylguanine] | (1.87 ± 0.05) × 10^4 M^–1 s^–1
C=Cc1ccc(C(=O)NCc2ccc(COc3cc(Cl)nc(N)n3)cc2)cc1 [CP-Vbn] | (5.50 ± 0.45) × 10^3 M^–1 s^–1
[N-]=[N+]=NCC(=O)NCc1ccc(COc2nc(N)nc3[nH]cnc23)cc1 [BG-N3] | (3.70 ± 0.09) × 10^4 M^–1 s^–1
[N-]=[N+]=NCC(=O)NCc1ccc(COc2cc(Cl)nc(N)n2)cc1 [CP-N3] | (6.36 ± 0.41) × 10^3 M^–1 s^–1
[N-]=[N+]=Nc1ccc(C(=O)NCc2ccc(COc3cc(Cl)nc(N)n3)cc2)cc1 [CP-PhN3] | (2.91 ± 0.40) × 10^3 M^–1 s^–1
Nc1nc(OCc2ccc(CNC(=O)OC3C#CCCCCC3)cc2)c2nc[nH]c2n1 (centres unmarked) [BG-SCO] | (3.75 ± 0.06) × 10^4 M^–1 s^–1
Nc1nc(OCc2ccc(CNC(=O)C3CC4C=CC3C4)cc2)c2nc[nH]c2n1 (centres unmarked) [BG-Nor1] | (7.34 ± 0.01) × 10^4 M^–1 s^–1
Nc1nc(Cl)cc(OCc2ccc(CNC(=O)C3CC4C=CC3C4)cc2)n1 (centres unmarked) [CP-Nor1] | (1.77 ± 0.04) × 10^4 M^–1 s^–1
Cc1nnc(-c2ccc(CC(=O)NCc3ccc(COc4nc(N)nc5[nH]cnc45)cc3)cc2)nn1 [BG-Tz] | (3.94 ± 0.08) × 10^4 M^–1 s^–1
Nc1nc(OCc2ccc(CNC(=O)OC[C@@H]3[C@@H]4CCC#CCC[C@@H]43)cc2)c2nc[nH]c2n1 [BG-BCN] | (3.88 ± 0.07) × 10^4 M^–1 s^–1
C=Cc1ccc(C(=O)NCc2ccc(COc3nc(N)nc4[nH]cnc34)cc2)cc1 [BG-Vbn] | (3.84 ± 0.07) × 10^4 M^–1 s^–1
